From patent US8586611B2 (priority 2005, dated 2013)
Read-outs that look alike come from different tables or passages of the source.

What was measured:
Type in all cases: in vivo
[1] = tested on: Phytophthora infestans; assay: whole plant or invertebrate; settings: for Test C disease rating (100 = 100% disease control, 0 = no disease control): tomato late blight, sprayed the day before inoculation
[2] = tested on: Plasmopara viticola; assay: Test B: grape downy mildew, spray 24 h after inoculation (disease rating, 100 = 100% disease control); settings: for Test B disease rating (100 = 100% disease control, 0 = no disease control): sprayed 24 h after inoculation
How it was run: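 This is a curative spray test, applied 24 h after inoculation. Compounds in 50/50 acetone–water with 250 ppm Trem 014 surfactant were sprayed to run-off on P. viticola-infected seedlings, with 200 ppm equating to 500 g/ha. Plants were kept 5 days in a 20 °C growth chamber, then 24 h humid, and scored 0–100 for disease control relative to controls.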

[3] = tested on: Pseudoperonospora cubensis; assay: Test F: cucumber downy mildew, DMSO/acetone/water test suspension, spray the day before inoculation (disease rating, 100 = 100% disease control)
Excerpt: The test compounds were first dissolved in dimethyl sulfoxide (DMSO) in an amount equal to 4% of the final volume and then suspended at the desired concentration (in ppm) in acetone and purified water (30/70 mix by volume). The resulting test suspensions were then used in test F. Spraying a 250 ppm test suspension on the test plants was the equivalent of a rate of 250 g/ha.
The test suspension was sprayed on cucumber seedlings. The following day the seedlings were inoculated with a spore suspension of Pseudoperonospora cubensis (the causal agent of cucumber downy mildew) and incubated in a saturated atmosphere at 20° C. for 24 h, and then moved to a growth chamber at 20° C. for 6 days, after which disease ratings were made.
Results for Tests A-F are given in Table A. In the table, a rating of 100 indicates 100% disease control and a rating of 0 indicates no disease control (relative to the controls). A dash (-) indicates no test results.

[4] = tested on: Erysiphe graminis f. sp. tritici; assay: Test E: wheat powdery mildew, spray the day before inoculation (disease rating, 100 = 100% disease control); settings: for Test E disease rating (100 = 100% disease control, 0 = no disease control): sprayed the day before inoculation, 7 days at 20° C.
How it was run: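 Protective test: spores of E. graminis f. sp. tritici dusted on wheat seedlings one day after run-off spraying of test suspension (acetone/water with 250 ppm surfactant; 200 ppm = 500 g/ha). Ratings after 7 days in growth chamber at 20° C, 100 = full control, 0 = none, relative to controls.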

[5] = tested on: Phytophthora infestans; assay: whole plant or invertebrate; settings: for Test D disease rating (100 = 100% disease control, 0 = no disease control): tomato late blight, sprayed 17 h after inoculation
[6] = unmarked compounds (no asterisk, not 40 or 10 ppm)

SMILES | Test C disease rating (100 = 100% disease control, 0 = no disease control) [1, 6] | Test B disease rating (100 = 100% disease control, 0 = no disease control) [2, 6] | Test E disease rating (100 = 100% disease control, 0 = no disease control) [4, 6] | Test D disease rating (100 = 100% disease control, 0 = no disease control) [5, 6] | further results
Cc1cc(C(F)(F)F)nn1CC(=O)N1CCC(c2nc(C(=O)N(C)C3CCCc4ccccc43)cs2)CC1 (stereo not drawn) [Compound 188, N-methyl-2-[1-[[5-methyl-3-(trifluoromethyl)-1H-pyrazol-1-yl]acetyl]-4-piperidinyl]-N-(1,2,3,4-tetrahydro-1-naphthalenyl)-4-thiazolecarboxamide] | – | – | – | – | pest or weed control at 10 ppm ([1]; Phytophthora infestans, in Solanum lycopersicum, 144 h, read-out: Test C disease rating (100 = 100% disease control, 0 = no disease control)): 100%; pest or weed control at 10 ppm ([2]; Plasmopara viticola, 144 h, spray 24 h after inoculation, tested at 10 ppm, read-out: Test B disease rating (100 = 100% disease control, 0 = no disease control)): 99%; pest or weed control at 10 ppm ([3]; Pseudoperonospora cubensis, topical, 168 h, DMSO/acetone/water suspension, spray the day before inoculation, compound marked as tested at 10 ppm, read-out: Test F disease rating (100 = 100% disease control, 0 = no disease control)): 99%; pest or weed control at 10 ppm ([4]; Blumeria graminis, topical, 168 h, spray the day before inoculation, tested at 10 ppm, read-out: Test E disease rating (100 = 100% disease control, 0 = no disease control)): 84%; pest or weed control at 10 ppm ([5]; Phytophthora infestans, in Solanum lycopersicum, topical, 96 h, read-out: Test D disease rating (100 = 100% disease control, 0 = no disease control)): 99%
CCN(C(=O)c1csc(C2CCN(C(=O)Cc3cc(C)ccc3C)CC2)n1)[C@H](C)c1ccccc1 [compound 286] | 23 | 39 | 52 | 0 | –
CCCN(C(=O)c1csc(C2CCN(C(=O)Cc3cc(C)ccc3C)CC2)n1)[C@H](C)c1ccccc1 [compound 287] | 50 | 0 | 0 | 0 | –
COc1ccc(CCNC(=O)c2csc(C3CCN(C(=O)Cc4cc(C)ccc4C)CC3)n2)cc1OC [compound 288] | – | 73 | 0 | 76 | Test F disease rating (100 = 100% disease control, 0 = no disease control) ([3]; DMSO/acetone/water test suspension, sprayed the day before inoculation, unmarked compounds (no asterisk)): 95
Cc1cc(C(F)(F)F)nn1CC(=O)N1CCC(c2nc(C(=O)N3CCCC3c3ccc(Cl)cc3)cs2)CC1 (stereo not drawn) [compound 290] | 90 | 0 | 0 | 26 | –
Cc1cc(C(F)(F)F)nn1CC(=O)N1C(C)CN(c2nc(C(=O)N(C)[C@@H]3CCCc4ccccc43)cs2)CC1C (stereo partly drawn) [compound 292] | 100 | 71 | 0 | 93 | –
Cc1cc(C(F)(F)F)nn1CC(=O)N1CCN(c2nc(C(=O)N(C)[C@@H]3CCCc4ccccc43)cs2)CC1C (stereo partly drawn) [compound 293] | 100 | 100 | 0 | 99 | –
Cc1cc(C(F)(F)F)nn1CC(=O)N1CCC(c2nc(C(=O)NC3CCCc4ccccc43)cs2)CC1 (stereo not drawn) [compound 294] | 100 | 99 | 0 | 96 | –
Cc1cc(C(F)(F)F)nn1CC(=O)N1CCC(c2nc(C(=O)N3Cc4ccccc4C3)cs2)CC1 [compound 295] | 95 | 39 | 0 | 39 | –
Cc1cc(C(F)(F)F)nn1CC(=O)N1CCC(c2nc(C(=O)N3CCc4ccccc4C3)cs2)CC1 [compound 296] | 100 | 82 | 0 | 93 | –
COc1cc2c(cc1OC)CN(C(=O)c1csc(C3CCN(C(=O)Cn4nc(C(F)(F)F)cc4C)CC3)n1)CC2 [compound 297] | 63 | 39 | 0 | 33 | –
Cc1cc(C(F)(F)F)nn1CC(=O)N1CCC(c2nc(C(=O)N3Cc4ccccc4C3C)cs2)CC1 (stereo not drawn) [compound 298] | – | – | – | – | Test C disease rating (100 = 100% disease control, 0 = no disease control) ([1]; tested at 10 ppm (**)): 80; Test B disease rating (100 = 100% disease control, 0 = no disease control) ([2]; tested at 10 ppm (**)): 57; Test E disease rating (100 = 100% disease control, 0 = no disease control) ([4]; tested at 10 ppm (**)): 0; Test D disease rating (100 = 100% disease control, 0 = no disease control) ([5]; tested at 10 ppm (**)): 0
Cc1cc(C(F)(F)F)nn1CC(=O)N1CCC(c2nc(C(=O)N3CCC4CCCCC4C3)cs2)CC1 (stereo not drawn) [compound 299] | 99 | 83 | 0 | 96 | –
Cc1cc(C(F)(F)F)nn1CC(=O)N1CCC(c2nc(C(=O)N3CCCC4CCCCC43)cs2)CC1 (stereo not drawn) [compound 300] | 97 | 62 | 0 | 58 | –
Cc1cc(C(F)(F)F)nn1CC(=O)N1CCC(c2nc(C(=O)N3CCCCC3)cs2)CC1 [compound 307] | 100 | 79 | 0 | 26 | –
Cc1cc(C(F)(F)F)nn1CC(=O)N1CCC(c2nc(C(=O)N3CCC(C)CC3)cs2)CC1 [compound 308] | 100 | 98 | 0 | 93 | –
Cc1cc(C(F)(F)F)nn1CC(=O)N1CCC(c2nc(C(=O)N3CCC(C)(C)CC3)cs2)CC1 [compound 309] | 100 | 96 | 0 | 83 | –
Cc1cc(C(F)(F)F)nn1CC(=O)N1CCC(c2nc(C(=O)N3CC=CCC3)cs2)CC1 [compound 310] | 73 | 47 | 0 | 9 | –
Cc1cc(C(F)(F)F)nn1CC(=O)N1CCC(c2nc(C(=O)N3CC=C(c4ccccc4)CC3)cs2)CC1 [compound 311] | 83 | 31 | 28 | 0 | –
Cc1cc(C(F)(F)F)nn1CC(=O)N1CCC(c2nc(C(=O)N3CCCC(C)C3)cs2)CC1 (stereo not drawn) [compound 312] | 100 | 91 | 0 | 80 | –
Cc1cc(C(F)(F)F)nn1CC(=O)N1CCC(c2nc(C(=O)N3CCCC(C)(C)C3)cs2)CC1 [compound 313] | 99 | 98 | 0 | 92 | –
Cc1cc(C(F)(F)F)nn1CC(=O)N1CCC(c2nc(C(=O)NCCc3ccccc3)cs2)CC1 [compound 314] | 100 | 98 | 0 | 99 | –
Cc1cc(C(F)(F)F)nn1CC(=O)N1C2CCC1CC(c1nc(C(=O)N(C)[C@@H]3CCCc4ccccc43)cs1)C2 (stereo partly drawn) [compound 316] | 100 | 97 | 0 | 97 | –
